{"source": "patent US9856239B1", "about": "“Carboxylic acid compound, method for preparation thereof, and use thereof” (INVENTISBIO SHANGHAI LTD., priority 2014, dated 2018)", "note": "pIC50: −log10 of the molar value."}
{"target": "human URAT1 (Homo sapiens (Human), UniProt Q96S37)", "sequence (Q96S37 whole entry)": "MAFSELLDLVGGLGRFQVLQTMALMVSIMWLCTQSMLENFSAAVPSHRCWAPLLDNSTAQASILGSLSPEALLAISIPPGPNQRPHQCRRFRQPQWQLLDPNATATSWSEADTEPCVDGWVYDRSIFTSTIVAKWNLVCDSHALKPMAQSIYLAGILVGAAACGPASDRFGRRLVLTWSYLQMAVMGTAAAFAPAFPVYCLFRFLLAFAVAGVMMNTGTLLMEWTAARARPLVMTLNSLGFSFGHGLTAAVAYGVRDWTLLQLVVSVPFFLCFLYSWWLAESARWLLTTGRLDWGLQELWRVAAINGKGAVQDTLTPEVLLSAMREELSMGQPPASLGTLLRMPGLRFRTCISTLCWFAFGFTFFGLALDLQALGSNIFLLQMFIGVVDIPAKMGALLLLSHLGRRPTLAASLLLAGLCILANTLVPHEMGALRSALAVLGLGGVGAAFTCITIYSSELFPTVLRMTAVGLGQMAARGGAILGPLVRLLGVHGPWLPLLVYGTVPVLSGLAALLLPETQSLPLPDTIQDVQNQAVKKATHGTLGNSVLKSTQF", "experiment": "Inhibition of 14C-uric acid absorption in URAT1 cell model (HEK-293T cells transfected with human URAT1)", "assay_type": "cell-based", "settings": "HEK-293T cells transfected with human URAT1, 14C-uric acid uptake, 5 min, 37 degrees; read-out: URAT1 IC50 Activity level", "procedure": "After 5 min, the buffer was removed from cell wells, added with 100 microliter of ice-cold and no chloride ions-containing HBSS buffer to gently rinse cells within wells so as to stop them from absorbing ^14C-uric acid, the rinsing was repeated 3 times in the same manner. 150 microliter of cell lysate (100 mM of NaOH) was added in each well. Cell plate was placed on a vibrating plate and vibrated for 10 min at a speed of 600 rpm such that the cells were completely lysed. The cell plate was put in a centrifuge and spun for 5 min at a speed of 1000 rpm, then 45 microliter of supernatant was sucked out from each well and transferred to 96-well plate (Isoplate-96 Microplate from PerkinElmer). In the new 96-well plate, 150 microliter of Ultima Gold XR scintillation solution was added in each well. The 96-well plate was vibrated for 10 min at a speed of 600 rpm on a vibrating plate. Finally, the 96-well plate was put in a MicroBeta Trilux Counter from PerkinElmer and was read, then IC50 values were calculated, and the results are shown in Table 1 below. Wherein"}
{"compound": "N#Cc1ccc(-c2cnccc2SCC2(C(=O)O)CC2)c2ccccc12", "note": "[Compound 1, 1-(((3-(4-cyanonaphthalen-1-yl)pyridin-4-yl)thio)methyl)cyclopropanecarboxylic acid]", "pIC50": "> 7.00"}
{"compound": "N#Cc1ccc(-c2cnccc2SCCC(=O)O)c2ccccc12", "note": "[Compound 2]", "pIC50": "6.00 to 7.00"}
{"compound": "N#Cc1ccc(-c2cnccc2SCCCC(=O)O)c2ccccc12", "note": "[Compound 3]", "pIC50": "> 7.00"}
{"compound": "N#Cc1ccc(-c2cnccc2SCC2(CC(=O)O)CC2)c2ccccc12", "note": "[Compound 4, 2-(1-(((3-(4-cyanonaphthalen-1-yl)pyridin-4-yl)thio)methyl)cyclopropyl)acetic acid]", "pIC50": "> 7.00"}
{"compound": "N#Cc1ccc(-c2cnccc2SC[C@H]2C[C@@H](C(=O)O)C2)c2ccccc12", "note": "[Compound 5]", "pIC50": "6.00 to 7.00"}
{"compound": "N#Cc1ccc(-c2cnccc2SC[C@H]2C[C@H](C(=O)O)C2)c2ccccc12", "note": "[Compound 6]", "pIC50": "< 6.00"}
{"compound": "N#Cc1ccc(-c2cnccc2S[C@H]2C[C@H](C(=O)O)C2)c2ccccc12", "note": "[Compound 7]", "pIC50": "6.00 to 7.00"}
{"compound": "CC(C)(Sc1ccncc1-n1cc(C#N)c2ccccc21)C(=O)O", "note": "[Compound 8, 2-((3-(3-cyano-1H-indol-1-yl)pyridin-4-yl)thio)-2-methylpropanoic acid]", "pIC50": "< 6.00"}
{"compound": "CC(C)(Sc1ccncc1-n1nc(C2CC2)c2ccccc21)C(=O)O", "note": "[Compound 9]", "pIC50": "< 6.00"}
{"compound": "CC(C)(Sc1ccncc1-c1ncc(C#N)c2ccccc12)C(=O)O", "note": "[Compound 10, 2-((3-(4-cyanoisoquinolin-1-yl)pyridin-4-yl)thio)-2-methylpropanoic acid]", "pIC50": "< 6.00"}
{"compound": "N#Cc1ccc(-c2ccccc2SCC2(CC(=O)O)CC2)cc1", "note": "[Compound 11, 2-(1-((2-(4-cyanophenyl)phenylthio)methyl)cyclopropyl)acetic acid]", "pIC50": "> 7.00"}
{"compound": "N#Cc1ccc(-c2cnccc2SCCC(F)(F)C(=O)O)c2ccccc12", "note": "[Compound 12]", "pIC50": "6.00 to 7.00"}
{"compound": "N#Cc1ccc(-c2cnccc2Sc2ccccc2C(=O)O)c2ccccc12", "note": "[Compound 13]", "pIC50": "6.00 to 7.00"}
{"compound": "N#Cc1ccc(-c2cnccc2Sc2cccc(C(=O)O)c2)c2ccccc12", "note": "[Compound 14]", "pIC50": "6.00 to 7.00"}
{"compound": "N#Cc1ccc(-c2cnccc2Sc2ccc(C(=O)O)cc2)c2ccccc12", "note": "[Compound 15]", "pIC50": "6.00 to 7.00"}
{"compound": "N#Cc1ccc(-c2cnccc2SCC2(C(=O)O)CCCC2)c2ccccc12", "note": "[Compound 16]", "pIC50": "> 7.00"}
{"compound": "N#Cc1ccc(-c2cnccc2SCC2(C(=O)O)CCC2)c2ccccc12", "note": "[Compound 17, 1-(((3-(4-cyanonaphthalen-1-yl)pyridin-4-yl)thio)methyl)cyclobutanecarboxylic acid]", "pIC50": "> 7.00"}
{"compound": "CC(C)(CCC(=O)O)Sc1ccncc1-c1ccc(C#N)c2ccccc12", "note": "[Compound 18, 4-((3-(4-cyanonaphthalen-1-yl)pyridin-4-yl)thio)-4-methylpentanoic acid]", "pIC50": "> 7.00"}
{"compound": "Cc1cc(C#N)cnc1-c1cnccc1SC(C)(C)C(=O)O", "note": "[Compound 19]", "pIC50": "< 6.00"}
{"compound": "N#Cc1ccc(-c2cnccc2SCC2(CC(=O)O)CC2)cc1", "note": "[Compound 20, 2-(1-(((3-(4-cyanophenyl)pyridin-4-yl)thio)methyl)cyclopropyl)acetic acid]", "pIC50": "> 7.00"}
{"compound": "O=C(O)CC1(CSc2ccncc2-c2ccc(CO)cc2)CC1", "note": "[Compound 22, 2-(1-((3-(4-(hydroxymethyl)phenyl)pyridin-4-ylthio)methyl)cyclopropyl)acetic acid]", "pIC50": "6.00 to 7.00"}
{"compound": "N#Cc1ccc(-c2cnccc2NCC(=O)O)c2ccccc12", "note": "[Compound 24, 2-(3-(1-cyanonaphthalen-4-yl)pyridin-4-ylamino)acetic acid]", "pIC50": "< 6.00"}
{"compound": "CC(C)(Nc1ccncc1-c1ccc(C#N)c2ccccc12)C(=O)O", "note": "[Compound 25]", "pIC50": "< 6.00"}
{"compound": "N#Cc1ccc(-c2cnccc2NCCC(=O)O)c2ccccc12", "note": "[Compound 26]", "pIC50": "< 6.00"}
{"compound": "N#Cc1ccc(-c2cnccc2NCCCC(=O)O)c2ccccc12", "note": "[Compound 27]", "pIC50": "< 6.00"}
{"compound": "N#Cc1ccc(-c2cnccc2NCC(=O)O)cc1", "note": "[Compound 28]", "pIC50": "< 6.00"}
{"compound": "N#Cc1ccc(-c2cnccc2OCC2(CC(=O)O)CC2)cc1", "note": "[Compound 29, 2-(1-(((3-(4-cyanophenyl)pyridin-4-yl)oxy)methyl)cyclopropyl)acetic acid]", "pIC50": "< 6.00"}
{"compound": "N#Cc1ccc(-c2cnccc2OCC2(CC(=O)O)CC2)c2ccccc12", "note": "[Compound 30]", "pIC50": "< 6.00"}
{"compound": "CC(C)(Oc1ccncc1-c1ccc(C#N)cc1)C(=O)O", "note": "[Compound 31, 2-(3-(4-cyanophenyl)pyridin-4-yloxy)-2-methylpropanoic acid]", "pIC50": "< 6.00"}
{"compound": "N#Cc1ccc(-c2cnccc2CCC(=O)O)c2ccccc12", "note": "[Compound 32, 3-(3-(4-cyanonaphthalen-1-yl)pyridin-4-yl) propanoic acid]", "pIC50": "< 6.00"}
{"compound": "CC(C)(Sc1ccncc1-c1ccc(C2(O)CC2)cc1)C(=O)O", "note": "[Compound 33, 2-((3-(4-(1-hydroxycyclopropyl)phenyl)pyridin-4-yl)thio)-2-methylpropanoic acid]", "pIC50": "6.00 to 7.00"}
{"compound": "O=C(O)CC1(CSc2ccncc2-c2ccc(C3(O)CC3)cc2)CC1", "note": "[Compound 34, 2-(1-(((3-(4-(1-hydroxycyclopropyl)phenyl)pyridin-4-yl)thio)methyl)cyclopropyl)acetic acid]", "pIC50": "6.00 to 7.00"}
{"compound": "CC(C)(Sc1ccncc1-c1ccc(C2(O)COC2)cc1)C(=O)O", "note": "[Compound 35, 2-((3-(4-(3-hydroxyoxetan-3-yl)phenyl)pyridin-4-yl)thio)-2-methylpropanoic acid]", "pIC50": "6.00 to 7.00"}
{"compound": "O=C(O)CC1(CSc2ccncc2-c2ccc(C3(O)COC3)cc2)CC1", "note": "[Compound 36, 2-(1-(((3-(4-(3-hydroxyoxetan-3-yl)phenyl)pyridin-4-yl)thio)methyl)cyclopropyl)acetic acid]", "pIC50": "< 6.00"}
{"compound": "CC(C)(Sc1ccncc1-c1ccc(C#N)cn1)C(=O)O", "note": "[Compound 37, 2-((5-cyano-[2,3′-bipyridine]-4′-yl)thio)-2-methylpropanoic acid]", "pIC50": "< 6.00"}
{"compound": "N#Cc1ccc(-c2cnccc2SCC2(CC(=O)O)CC2)nc1", "note": "[Compound 38, 2-(1-(((5-cyano-2,3′-bipyridin-4′-yl)thio)methyl)cyclopropyl)acetic acid]", "pIC50": "< 6.00"}
{"compound": "O=C(O)CC1(CSc2ccncc2-c2ccc(C(=O)O)cn2)CC1", "note": "[Compound 39, 4′-(((1-(carboxymethyl)cyclopropyl)methyl)thio)-[2,3′-bipyridine]-5-carboxylic acid]", "pIC50": "< 6.00"}
{"compound": "[2H]C([2H])([2H])C(Sc1ccncc1-c1ccc(C#N)c2ccccc12)(C(=O)O)C([2H])([2H])[2H]", "note": "[Compound 40, di(methyl-d3)-2-((3-(4-cyanonaphthalen-1-yl)pyridin-4-yl)thio)acetic acid]", "pIC50": "> 7.00"}
{"compound": "[2H]C([2H])([2H])C(C)(Sc1ccncc1-c1ccc(C#N)c2ccccc12)C(=O)O", "note": "(stereo not drawn) [Compound 41, 2-methyl-d3-2-((3-(4-cyanonaphthalen-1-yl)pyridin-4-yl)thio) propanoic acid]", "pIC50": "> 7.00"}
